pIC50: −log10 of the molar value. Where two headings read alike, the source gives them in different places.

This assay concerns the target T1, full-length SARM1 (FL-SARM1) (Homo sapiens, UniProt Q6SZW1).
T1 sequence (Q6SZW1 28-724): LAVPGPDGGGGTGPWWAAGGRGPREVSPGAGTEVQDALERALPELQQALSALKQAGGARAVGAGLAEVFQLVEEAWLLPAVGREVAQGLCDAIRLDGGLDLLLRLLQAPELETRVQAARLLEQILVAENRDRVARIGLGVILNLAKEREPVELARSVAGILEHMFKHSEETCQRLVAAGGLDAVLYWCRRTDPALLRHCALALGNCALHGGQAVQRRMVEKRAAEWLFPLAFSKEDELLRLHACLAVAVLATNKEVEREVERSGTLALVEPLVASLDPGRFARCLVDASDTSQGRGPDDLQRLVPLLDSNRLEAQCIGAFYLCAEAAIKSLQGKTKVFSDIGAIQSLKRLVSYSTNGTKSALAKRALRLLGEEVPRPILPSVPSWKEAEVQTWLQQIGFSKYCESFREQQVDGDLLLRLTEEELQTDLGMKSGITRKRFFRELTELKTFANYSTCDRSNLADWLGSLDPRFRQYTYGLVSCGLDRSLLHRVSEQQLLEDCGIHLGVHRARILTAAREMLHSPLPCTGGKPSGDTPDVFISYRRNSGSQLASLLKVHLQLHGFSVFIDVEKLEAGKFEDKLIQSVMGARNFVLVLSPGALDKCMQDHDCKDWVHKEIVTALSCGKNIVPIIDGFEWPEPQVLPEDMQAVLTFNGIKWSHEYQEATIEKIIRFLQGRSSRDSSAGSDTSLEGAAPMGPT
The experiment in a line: FL-SARM1 cellular lysate assay (NAD/NADH-Glo detection of remaining NAD+, NMN-activated). The settings on record: for IC50: Activity (μM) (IC50).

[1] abbreviates: read-out: Activity (IC50 class), 11 point curve.
[2] abbreviates: Activity (IC50 class), 11 point curve.

Broadly, the IC50 is the point on the concentration scale where inhibition reaches its midpoint. Read a high IC50 as a need for much substance. One may read the pIC50 as the negative decadic logarithm of the IC50, by convention in mol/L. The compound `COC(C)[C@@]12CC(C[C@@H](C)C1)N2C(=O)Nc1ccc(C(F)(F)F)c(-c2nccnn2)c1` (single isomer, unassigned) [Example 211, cis-N-(3-(1,2,4-triazin-3-yl)-4-(trifluoromethyl)phenyl)-1-(1-methoxyethyl)-3-methyl-6-azabicyclo[3.1.1]heptane-6-carboxamide] registered an IC50 (11 point curve) of 0.004 µM. Moreover, the pIC50 under setting [1] is 6.00 to 10.00.
Compound `Cc1ccc(NC(=O)[C@H]2CC[C@H]3C[C@H]3N2c2ncccn2)cc1-c1ncc(F)cn1` [Example 292, (1R,3R,6S)-N-[3-(5-fluoropyrimidin-2-yl)-4-methylphenyl]-2-pyrimidin-2-yl-2-azabicyclo[4.1.0]heptane-3-carboxamide] had a pIC50 under setting [2] of 5.00 to 6.00. Further, the IC50 (11 point curve) was determined as 2 µM.
On to `Cc1ccc(NC(=O)[C@@H]2[C@@H]3CC[C@H]2N(CC(F)(F)F)C3)cc1-c1ccccn1` (single isomer, unassigned) [Example 105, trans-N-(4-methyl-3-(pyridin-2-yl)phenyl)-2-(2,2,2-trifluoroethyl)-2-azabicyclo[2.2.1]heptane-7-carboxamide], for which the pIC50 under setting [2] was less than 5.00. This compound displayed an IC50 (11 point curve) of 17 µM.
The compound `Cc1ccc(NC(=O)N2C3CC(C)CC2(C(C)O)C3)cc1-c1ncc(F)cn1` (single isomer, unassigned) [Example 193, cis-N-(3-(5-fluoropyrimidin-2-yl)-4-methylphenyl)-1-(1-hydroxyethyl)-3-methyl-6-azabicyclo[3.1.1]heptane-6-carboxamide] returned an IC50 (11 point curve) of 0.1 µM. Further, the pIC50 under setting [1] was 6.00 to 10.00.
Under setting [2], `Cc1cc(F)c(NC(=O)N2C3CCCC2C3)cc1-c1nccnn1` [Example 246, N-[2-fluoro-4-methyl-5-(1,2,4-triazin-3-yl)phenyl]-6-azabicyclo[3.1.1]heptane-6-carboxamide] gave a pIC50 of 5.00 to 6.00. The IC50 (11 point curve) was found to be 2 µM.
Regarding `Cc1cc(F)c(NC(=O)N2[C@@H]3C[C@@H](C)C[C@H]2C3)cc1-c1ncccn1` [Example 253, cis-N-(2-fluoro-4-methyl-5-pyrimidin-2-ylphenyl)-3-methyl-6-azabicyclo[3.1.1]heptane-6-carboxamide], the IC50 (11 point curve) was 0.08 µM. Also, the pIC50 under setting [1] was 6.00 to 10.00.
Take `CC(C)c1ccc(NC(=O)[C@@H]2CC2(F)F)cc1-c1ccccn1` [Example 151, (1S)-2,2-difluoro-N-(4-propan-2-yl-3-pyridin-2-ylphenyl)cyclopropane-1-carboxamide]: under setting [2], the pIC50 is 5.00 to 6.00. Moreover, for the setting “11 point curve”, the IC50 came to 4.2 µM.
For `Cc1ccc(NC(=O)N2[C@@H]3C[C@@H](C)C[C@@]2(COC(F)F)C3)cc1-c1ncc(F)cn1` (racemic) [Example 227, cis-1-(difluoromethoxymethyl)-N-[3-(5-fluoropyrimidin-2-yl)-4-methylphenyl]-3-methyl-6-azabicyclo[3.1.1]heptane-6-carboxamide], the IC50 (11 point curve) amounted to 0.02 µM. Also, under setting [1], the pIC50 is 6.00 to 10.00.
In the case of `Cc1ccc(NC(=O)[C@@H]2CN(CC(F)(F)F)C[C@H]2c2ccccn2)cc1-c1ncc(F)cn1` (racemic) [Example 280, trans-N-[3-(5-fluoropyrimidin-2-yl)-4-methylphenyl]-4-pyridin-2-yl-1-(2,2,2-trifluoroethyl)pyrrolidine-3-carboxamide], the pIC50 under setting [2] was less than 5.00. The compound also displayed an IC50 (11 point curve) of 28 µM.
Turning to `Cc1cc(F)c(NC(=O)N2CC3CC2c2ccccc23)cc1-c1cccnn1` (single isomer, unassigned) [Example 202, N-(2-fluoro-4-methyl-5-pyridazin-3-ylphenyl)-9-azatricyclo[6.2.1.02,7]undeca-2(7),3,5-triene-9-carboxamide], the IC50 (11 point curve) was 6.7 µM. Besides, the pIC50 under setting [1] was 5.00 to 6.00.
Taken in the same sequence, the figures for `Cc1ccc(NC(=O)N2C3C[C@H](C#N)C[C@@H]2C3)cc1-c1ccccn1` [Example 74, cis-3-cyano-N-(4-methyl-3-(pyridin-2-yl)phenyl)-6-azabicyclo[3.1.1]heptane-6-carboxamide] were 0.3 µM and 6.00 to 10.00.
`O=C(Nc1ccc(C(F)F)c(-c2ccccn2)c1)[C@@H]1CC1(F)F` [Example 126, (1S)-N-[4-(difluoromethyl)-3-pyridin-2-ylphenyl]-2,2-difluorocyclopropane-1-carboxamide] showed a pIC50 under setting [2] of 5.00 to 6.00. Where the note is “11 point curve”, the IC50 was determined as 2.5 µM.
In the case of `Cc1ccc(NC(=O)N2C3CCCC2C3)cc1-c1ncc(F)cn1` [Example 55, N-(3-(5-fluoropyrimidin-2-yl)-4-methylphenyl)-6-azabicyclo[3.1.1]heptane-6-carboxamide], it took 0.2 µM to reach half-maximal inhibition (11 point curve) (IC50). In addition, the pIC50 under setting [1] is 6.00 to 10.00.
Taken in the same sequence, the figures for `O=C(Nc1ccc(OC(F)(F)F)c(-c2ccccn2)c1)N1C2CCCC1C2` [Example 59, N-(3-(pyridin-2-yl)-4-(trifluoromethoxy)phenyl)-6-azabicyclo[3.1.1]heptane-6-carboxamide] were 0.6 µM and 6.00 to 10.00.
Under setting [2], `Cc1ccc(NC(=O)[C@H]2C[C@@H](C(F)(F)F)CN2c2ncccn2)cc1-c1cccnn1` [Example 294, (2R,4R)-N-(4-methyl-3-pyridazin-3-ylphenyl)-1-pyrimidin-2-yl-4-(trifluoromethyl) pyrrolidine-2-carboxamide] showed a pIC50 of 5.00 to 6.00. 9.4 µM corresponded to half-maximal inhibition (11 point curve) (IC50).
`Cc1ccc(NC(=O)C2CCC23CC3)cc1-c1ccccn1` (racemic) [Example 113, N-(4-methyl-3-pyridin-2-ylphenyl)spiro[2.3]hexane-6-carboxamide] gave a pIC50 under setting [2] of 5.00 to 6.00. For the same compound, for the setting “11 point curve”, the IC50 came out at 2.5 µM.
For `Cc1ccc(NC(=O)N2C3CC2CN(CC(F)(F)F)C3)cc1-c1ccccn1` [Example 4, N-(4-methyl-3-(pyridin-2-yl)phenyl)-3-(2,2,2-trifluoroethyl)-3,6-diazabicyclo[3.1.1]heptane-6-carboxamide], under “11 point curve”, the IC50 was 0.4 µM. For the same compound, under setting [1], the pIC50 was 6.00 to 10.00.
`COC(=O)[C@@H]1CC[C@@H]2C[C@H]1N2C(=O)Nc1ccc(C)c(-c2ccccn2)c1` (racemic) [Example 70, cis-methyl-6-((4-methyl-3-(pyridin-2-yl)phenyl)carbamoyl)-6-azabicyclo[3.1.1]heptane-2-carboxylate] gave a pIC50 under setting [2] of 5.00 to 6.00. This compound also gave an IC50 (11 point curve) of 1.9 µM.
Taken in the same sequence, the figures for `Cc1ccc(NC(=O)[C@@H]2C[C@@H]2C(F)(F)F)cc1-c1ccccn1` (racemic) [Example 124, cis-N-(4-methyl-3-pyridin-2-ylphenyl)-2-(trifluoromethyl)cyclopropane-1-carboxamide] were 5.00 to 6.00 and 3.1 µM.
In the case of `Cc1ccc(NC(=O)N2C3CCC2c2ccccc23)cc1-c1ccccn1` [Example 8, N-[4-Methyl-3-(2-pyridyl)phenyl]-11-azatricyclo[6.2.1.02,7]undeca-2,4,6-triene-11-carboxamide], under “11 point curve”, the IC50 came to 0.06 µM. For the same compound, under setting [1], the pIC50 is 6.00 to 10.00.
Taken in the same sequence, the figures for `Cc1ccc(NC(=O)N2[C@@H]3C[C@H](C)C[C@H]2C3)cc1-c1ccccn1` [Example 10, trans-3-Methyl-N-(4-methyl-3-(pyridin-2-yl)phenyl)-6-azabicyclo[3.1.1]heptane-6-carboxamide] were 0.01 µM and 6.00 to 10.00.
Under setting [2], `CC[C@H]1C[C@@H]1C(=O)Nc1ccc(C)c(-c2ccccn2)c1` (racemic) [Example 108, trans-2-ethyl-N-(4-methyl-3-pyridin-2-ylphenyl)cyclopropane-1-carboxamide] gave a pIC50 of 5.00 to 6.00. Besides, for the setting “11 point curve”, inhibition was half-maximal at 1.1 µM (IC50).
As to `C[C@@H]1CC2C[C@H](C1)N2C(=O)Nc1ccc(CF)c(-c2ncc(F)cn2)c1` [Example 179, cis-N-(4-(fluoromethyl)-3-(5-fluoropyrimidin-2-yl)phenyl)-3-methyl-6-azabicyclo[3.1.1]heptane-6-carboxamide], inhibition (11 point curve) was half-maximal at 0.03 µM (IC50). Further, under setting [1], the pIC50 is 6.00 to 10.00.
As to `CO[C@@H]1CCCN(C(=O)Nc2ccc(C(F)(F)F)c(-c3ncc(F)cn3)c2)CC1` [Example 306, (R)-N-(3-(5-fluoropyrimidin-2-yl)-4-(trifluoromethyl)phenyl)-4-methoxyazepane-1-carboxamide], under setting [2], the pIC50 is 5.00 to 6.00. For the setting “11 point curve”, this compound returned an IC50 of 9.6 µM.
As to `Cc1ccc(NC(=O)N2[C@@H]3C[C@@H](F)C[C@H]2C3)cc1-c1ccccn1` [Example 27, cis-3-fluoro-N-(4-methyl-3-(pyridin-2-yl)phenyl)-6-azabicyclo[3.1.1]heptane-6-carboxamide], the IC50 (11 point curve) was found to be 0.1 µM. Under setting [1], the pIC50 was 6.00 to 10.00.
The compound `Cc1ccc(NC(=O)N2C3CC2C(=O)N(C)C3)cc1-c1ccccn1` (stereo not drawn) [Example 22, 3-methyl-N-(4-methyl-3-(pyridin-2-yl)phenyl)-2-oxo-3,6-diazabicyclo[3.1.1]heptane-6-carboxamide] gave a pIC50 under setting [2] of 5.00 to 6.00. The compound also displayed an IC50 (11 point curve) of 2 µM.
The matching figures for `Cc1ccc(NC(=O)[C@H]2C[C@@H]2C2CC2)cc1-c1cccnn1` (racemic) [Example 283, trans-2-cyclopropyl-N-(4-methyl-3-pyridazin-3-ylphenyl)cyclopropane-1-carboxamide]: less than 5.00 and 11 µM.
